# Structures can show the parent of a compound that is named as a salt.
# Experiment: Biliary excretion and bile flow after i.v. TFA-IOP (100 umol/kg) or IOP (100 in text, 104 umol/kg in tables) in rats
# Settings: rat; for dose excreted at 10 min / dose excreted at 20 min / dose excreted at 0.5 h / dose excreted at 40 min / dose excreted at 50 min / dose excreted at 1 h / dose excreted at 70 min / dose excreted at 80 min / dose excreted at 1.5 h / dose excreted at 0 h: in vivo, iv, 100 umol/kg
# Experimental: Tissues examined included liver, spleen, upper GI, lower GI, kidney, lung and heart. The length of each study was 90 minutes, during which time bile, urine and plasma samples were taken to monitor uptake and excretion. NMR relaxation rates for liver and plasma were also examined to note whether uptake of either compound might possible alter these parameters.
# [1] = i.v., period 10-0 min (pre-injection)
smiles,measurement,setting,value
"CCC(Cc1c(I)cc(I)c(NC(=O)C(F)(F)F)c1I)C(=O)O (centres unmarked) [TFA-IOP, N-trifluoroacetyl-iopanoic acid]",Bile flow,"i.v., 0-10 min",.04071 mL/min
same,Bile flow per kg b.w.,"i.v., 0-10 min",.09359 ml/min per kg b.w.
same,Bile flow per kg l.w.,"i.v., 0-10 min",3.127 ml/min per kg l.w.
same,Biliary excretion rate,"i.v., 0-10 min",.123 µmol/min
same,Biliary excretion rate per kg b.w.,"i.v., 0-10 min",.282 umoles/min per kg b.w.
same,Biliary excretion rate per kg l.w.,"i.v., 0-10 min",9.411 umoles/min per kg l.w.
same,umoles in bile sample,"i.v., 0-10 min",1.23 UMOLES
same,Bile flow,"i.v., 10-20 min",.03675 mL/min
same,Bile flow per kg b.w.,"i.v., 10-20 min",.08448 ml/min per kg b.w.
same,Bile flow per kg l.w.,"i.v., 10-20 min",2.823 ml/min per kg l.w.
same,Biliary excretion rate,"i.v., 10-20 min",.212 µmol/min
same,Biliary excretion rate per kg b.w.,"i.v., 10-20 min",.488 umoles/min per kg b.w.
same,Biliary excretion rate per kg l.w.,"i.v., 10-20 min",16.308 umoles/min per kg l.w.
same,umoles in bile sample,"i.v., 10-20 min",2.12 UMOLES
same,Bile flow,"i.v., 20-30 min",.04050 mL/min
same,Bile flow per kg b.w.,"i.v., 20-30 min",.09310 ml/min per kg b.w.
same,Bile flow per kg l.w.,"i.v., 20-30 min",3.111 ml/min per kg l.w.
same,Biliary excretion rate,"i.v., 20-30 min",.261 µmol/min
same,Biliary excretion rate per kg b.w.,"i.v., 20-30 min",.599 umoles/min per kg b.w.
same,Biliary excretion rate per kg l.w.,"i.v., 20-30 min",20.020 umoles/min per kg l.w.
same,umoles in bile sample,"i.v., 20-30 min",2.61 UMOLES
same,Bile flow,"i.v., 30-40 min",.02992 mL/min
same,Bile flow per kg b.w.,"i.v., 30-40 min",.06878 ml/min per kg b.w.
same,Bile flow per kg l.w.,"i.v., 30-40 min",2.298 ml/min per kg l.w.
same,Biliary excretion rate,"i.v., 30-40 min",.233 µmol/min
same,Biliary excretion rate per kg b.w.,"i.v., 30-40 min",.537 umoles/min per kg b.w.
same,Biliary excretion rate per kg l.w.,"i.v., 30-40 min",17.931 umoles/min per kg l.w.
same,umoles in bile sample,"i.v., 30-40 min",2.33 UMOLES
same,Bile flow,"i.v., 40-50 min",.03047 mL/min
same,Bile flow per kg b.w.,"i.v., 40-50 min",.07005 ml/min per kg b.w.
same,Bile flow per kg l.w.,"i.v., 40-50 min",2.34 ml/min per kg l.w.
same,Biliary excretion rate,"i.v., 40-50 min",.233 µmol/min
same,Biliary excretion rate per kg b.w.,"i.v., 40-50 min",.535 umoles/min per kg b.w.
same,Biliary excretion rate per kg l.w.,"i.v., 40-50 min",17.882 umoles/min per kg l.w.
same,umoles in bile sample,"i.v., 40-50 min",2.33 UMOLES
same,Bile flow,"i.v., 50-60 min",.02817 mL/min
same,Bile flow per kg b.w.,"i.v., 50-60 min",.06476 ml/min per kg b.w.
same,Bile flow per kg l.w.,"i.v., 50-60 min",2.164 ml/min per kg l.w.
same,Biliary excretion rate,"i.v., 50-60 min",.238 µmol/min
same,Biliary excretion rate per kg b.w.,"i.v., 50-60 min",.548 umoles/min per kg b.w.
same,Biliary excretion rate per kg l.w.,"i.v., 50-60 min",18.307 umoles/min per kg l.w.
same,umoles in bile sample,"i.v., 50-60 min",2.38 UMOLES
same,Bile flow,"i.v., 60-70 min",.02721 mL/min
same,Bile flow per kg b.w.,"i.v., 60-70 min",.06255 ml/min per kg b.w.
same,Bile flow per kg l.w.,"i.v., 60-70 min",2.09 ml/min per kg l.w.
same,Biliary excretion rate,"i.v., 60-70 min",.146 µmol/min
same,Biliary excretion rate per kg b.w.,"i.v., 60-70 min",.336 umoles/min per kg b.w.
same,Biliary excretion rate per kg l.w.,"i.v., 60-70 min",11.228 umoles/min per kg l.w.
same,umoles in bile sample,"i.v., 60-70 min",1.46 UMOLES
same,Bile flow,"i.v., 70-80 min",.02653 mL/min
same,Bile flow per kg b.w.,"i.v., 70-80 min",.06099 ml/min per kg b.w.
same,Bile flow per kg l.w.,"i.v., 70-80 min",2.038 ml/min per kg l.w.
same,Biliary excretion rate,"i.v., 70-80 min",.141 µmol/min
same,Biliary excretion rate per kg b.w.,"i.v., 70-80 min",.324 umoles/min per kg b.w.
same,Biliary excretion rate per kg l.w.,"i.v., 70-80 min",10.811 umoles/min per kg l.w.
same,umoles in bile sample,"i.v., 70-80 min",1.41 UMOLES
same,Bile flow,"i.v., 80-90 min",.02586 mL/min
same,Bile flow per kg b.w.,"i.v., 80-90 min",.05945 ml/min per kg b.w.
same,Bile flow per kg l.w.,"i.v., 80-90 min",1.986 ml/min per kg l.w.
same,Biliary excretion rate,"i.v., 80-90 min",.121 µmol/min
same,Biliary excretion rate per kg b.w.,"i.v., 80-90 min",.277 umoles/min per kg b.w.
same,Biliary excretion rate per kg l.w.,"i.v., 80-90 min",9.262 umoles/min per kg l.w.
same,umoles in bile sample,"i.v., 80-90 min",1.21 UMOLES
same,Bile flow,[1],.02093 mL/min
same,Bile flow per kg b.w.,[1],.04811 ml/min per kg b.w.
same,Bile flow per kg l.w.,[1],1.608 ml/min per kg l.w.
same,Biliary excretion rate,[1],.013 µmol/min
same,Biliary excretion rate per kg b.w.,[1],.031 umoles/min per kg b.w.
same,Biliary excretion rate per kg l.w.,[1],1.021 umoles/min per kg l.w.
same,umoles in bile sample,[1],.13 UMOLES
same,umoles running total in bile,"i.v., through 0-10 min",1.36 UMOLES
same,umoles running total in bile,"i.v., through 10-20 min",3.48 UMOLES
same,umoles running total in bile,"i.v., through 20-30 min",6.09 UMOLES
same,umoles running total in bile,"i.v., through 30-40 min",8.42 UMOLES
same,umoles running total in bile,"i.v., through 40-50 min",10.75 UMOLES
same,umoles running total in bile,"i.v., through 50-60 min",13.13 UMOLES
same,umoles running total in bile,"i.v., through 60-70 min",14.60 UMOLES
same,umoles running total in bile,"i.v., through 70-80 min",16.00 UMOLES
same,umoles running total in bile,"i.v., through 80-90 min",17.21 UMOLES
same,umoles running total in bile,"i.v., through period printed 10-0 min (pre-injection)",.13 UMOLES
same,rate of biliary excretion relative to IOP,"i.v., vs IOP, FIG. 8",approximately twice
same,dose excreted at 10 min,"Percentage of dose in bile sample, 0-10 min",2.82%
same,dose excreted at 20 min,"Percentage of dose in bile sample, 10-20 min",4.88%
same,dose excreted at 0.5 h,"Percentage of dose in bile sample, 20-30 min",5.99%
same,dose excreted at 40 min,"Percentage of dose in bile sample, 30-40 min",5.37%
same,dose excreted at 50 min,"Percentage of dose in bile sample, 40-50 min",5.35%
same,dose excreted at 1 h,"Percentage of dose in bile sample, 50-60 min",5.48%
same,dose excreted at 70 min,"Percentage of dose in bile sample, 60-70 min",3.36%
same,dose excreted at 80 min,"Percentage of dose in bile sample, 70-80 min",3.24%
same,dose excreted at 1.5 h,"Percentage of dose in bile sample, 80-90 min",2.77%
same,dose excreted at 0 h,"Percentage of dose in bile sample, period 10-0 min (pre-injection)",0.31%
same,dose excreted at 10 min,"Percentage of dose running total in bile, through 0-10 min",3.12%
same,dose excreted at 20 min,"Percentage of dose running total in bile, through 10-20 min",8%
same,dose excreted at 0.5 h,"Percentage of dose running total in bile, through 20-30 min",14%
same,dose excreted at 40 min,"Percentage of dose running total in bile, through 30-40 min",19.4%
same,dose excreted at 50 min,"Percentage of dose running total in bile, through 40-50 min",24.7%
same,dose excreted at 1 h,"Percentage of dose running total in bile, through 50-60 min",30.2%
same,dose excreted at 70 min,"Percentage of dose running total in bile, through 60-70 min",33.6%
same,dose excreted at 80 min,"Percentage of dose running total in bile, through 70-80 min",36.8%
same,dose excreted at 1.5 h,"Percentage of dose running total in bile, through 80-90 min",39.6%
same,dose excreted at 0 h,"Percentage of dose running total in bile, through period printed 10-0 min (pre-injection)",0.31%
